According to PMC8587465, “Naturally Available Flavonoid Aglycones as Potential Antiviral Drug Candidates against SARS-CoV-2” (Molecules, 2021):
Converted amounts (≈) assume the structure as drawn. Where two headings read alike, the source gives them in different places.

How the values were obtained:
[1] = system: SARS-CoV-2 "NRC-03-nhCoV" virus; assay: In vitro anti-SARS-CoV-2 activity, IC50 by reduction of virus-induced cytopathic effect in Vero-E6 cells; assay type: cell-based; conditions: read-out: inhibitory concentration 50% (IC50) against NRC-03-nhCoV
[2] = Cytotoxicity (CC50) determination, crystal violet assay; assay type: cell-based; conditions: African green monkey
Description: To assess the half-maximal cytotoxic concentration (CC50), stock solutions of the compounds were prepared in 10% DMSO in ddH2O and diluted further to the working solutions with DMEM. The cytotoxic activity of the extracts was tested in VERO-E6 cells by using a crystal violet assay, as previously described with minor modifications. Briefly, the cells were seeded in 96 well-plates (100 µL/well at a density of 3 × 10^5 cells/mL) and incubated for 24 h at 37 °C in 5% CO2. Control cells were treated with 1% DMSO in DMEM (the concentration of DMSO in the highest concentration of the tested samples). After 24 h, the cells were treated with various concentrations of the compounds in triplicates. After 72 h, the supernatant was discarded, and the cell monolayers were fixed with 10% formaldehyde for 1 h at room temperature (RT). The fixed monolayers were, then, dried and stained with 50 µL of 0.1% crystal violet for 20 min on a bench rocker at RT. The monolayers were, then, washed and dried, and the crystal violet dye in each well was dissolved with 200 µL methanol for 20 min on a bench rocker at RT. […]
All experiments were performed in three biological repeats. […] The IC50 and CC50 curves represent the nonlinear fit of “normalize” of “transform” of the obtained data; their values were calculated using GraphPad prism as “best fit value”.

SARS-CoV-2 Mpro = conditions: stated in the abstract for the reference standard; method and reference not given; cited from earlier work
[3] = Severe acute respiratory syndrome coronavirus 2, Vero C1008, 72 h

## COc1ccc(-c2cc(=O)c3c(O)c(OC)c(O)cc3o2)cc1 [Compound 2, Pectolinarigenin]
[1]; [3]
  IC50: 12.4 µg/mL (≈ 39.5 µM)

## COc1c(O)cc2oc(-c3ccc(O)cc3)cc(=O)c2c1O [Compound 5, Hispidulin]
[1]; [3]
  IC50: 883 µg/mL (≈ 2940 µM)
[2]; Vero E6 cells, 72 h, crystal violet, read-out: half-maximal cytotoxic concentration (CC50)
  CC50 at 72 h: 14.1 mg/mL (≈ 47100 µM)

## CC(C)(C)OC(=O)Nc1cccn(C(CC2CC2)C(=O)NC(CC2CCNC2=O)C(=O)C(=O)NCc2ccccc2)c1=O (stereo not shown) [KI]
SARS-CoV-2 Mpro
  IC50: 66.72 µg/mL (≈ 112 µM)

## COc1ccc(-c2cc(=O)c3c(O)c(OC)c(OC)c(OC)c3o2)cc1 [Compound 4, Gardenin B]
[1]; Severe acute respiratory syndrome coronavirus 2, Vero C1008, Vero-E6 cells, 100 TCID50, 72 h, CPE reduction
  IC50: 128 µg/mL (≈ 357 µM)
[2]
  CC50 at 72 h: 14.1 mg/mL (≈ 39400 µM)

## COc1ccc(-c2cc(=O)c3c(OC)c(OC)c(OC)c(OC)c3o2)cc1 [Compound 3, Tangeretin]
[1]; [3]
  IC50: 2.5 µg/mL (≈ 6.71 µM)
